Values of other authors, collected in US6090852A, “Substituted alpha-aminosulphonyl-acetohydroxamic acids as therapeutic agents” (Pfizer Inc, priority 1998, dated 2000).

Tested on: human ovarian carcinoma xenografts
Conditions: mice carrying human ovarian carcinoma xenografts; Cancer Res., 1993, 53, 2087

CNC(=O)[C@H](Cc1ccccc1)NC(=O)[C@H](CC(C)C)[C@H](CSc1cccs1)C(=O)NO [BB-94]
survival: prolong the survival
tumour burden: decrease the tumour burden
